Test results published in ChEMBL document CHEMBL4251606, “Design and characterization of α-lipoic acyl shikonin ester twin drugs as tubulin and PDK1 dual inhibitors” (Eur J Med Chem, 2018).
Activity calls are given as the source filed them. No cut-off for these calls is given here.

What was measured:
MDA-MB-231 = assay: Antiproliferative activity against human MDA231 cells after 24 hrs by MTT assay; type: functional, cell-based; details: MDA-MB-231, 24 h
A549 = assay: Antiproliferative activity against human A549 cells after 24 hrs by MTT assay; type: functional, cell-based; details: A549, 24 h
HEK-293T = assay: Antiproliferative activity against human 293T cells after 24 hrs by MTT assay; type: cell-based
HeLa [1] = assay: Cell cycle arrest in human HeLa cells assessed as accumulation of cells at G1 phase at 2 uM after 24 hrs by propidium iodide staining-based FACScan flow cytometric analysis (reference value: 62.92%); type: functional
HeLa [2] = assay: Cell cycle arrest in human HeLa cells assessed as accumulation of cells at S phase at 2 uM after 24 hrs by propidium iodide staining-based FACScan flow cytometric analysis (reference value: 20.16%); type: functional
HeLa [3] = assay: Cell cycle arrest in human HeLa cells assessed as accumulation of cells at G1 phase at 4 uM after 24 hrs by propidium iodide staining-based FACScan flow cytometric analysis (reference value: 62.92%); type: functional
HeLa [4] = assay: Cell cycle arrest in human HeLa cells assessed as accumulation of cells at S phase at 4 uM after 24 hrs by propidium iodide staining-based FACScan flow cytometric analysis (reference value: 20.16%); type: functional
HeLa [5] = assay: Cell cycle arrest in human HeLa cells assessed as accumulation of cells at G1 phase at 8 uM after 24 hrs by propidium iodide staining-based FACScan flow cytometric analysis (reference value: 62.92%); type: functional
HeLa [6] = assay: Cell cycle arrest in human HeLa cells assessed as accumulation of cells at S phase at 8 uM after 24 hrs by propidium iodide staining-based FACScan flow cytometric analysis (reference value: 20.16%); type: functional
HeLa [7] = assay: Cell cycle arrest in human HeLa cells assessed as accumulation of cells at G2/M phase at 8 uM after 24 hrs by propidium iodide staining-based FACScan flow cytometric analysis (reference value: 16.82%); type: functional
[8] = molecular target: [Pyruvate dehydrogenase (acetyl-transferring)] kinase isozyme 1, mitochondrial (Homo sapiens) (UniProt Q15118); assay: Inhibition of PDK1 in human HeLa cells assessed as increase in PDH activity at 1 to 1.5 uM by microplate assay; type: cell-based
[9] = molecular target: [Pyruvate dehydrogenase (acetyl-transferring)] kinase isozyme 1, mitochondrial (Homo sapiens) (UniProt Q15118); assay: Inhibition of PDK1 in human HeLa cells assessed as decrease in PDH-E1 alpha p-ser232 expression up to 8 uM by Western blot analysis; type: cell-based
HeLa [10] = assay: Induction of apoptosis in human HeLa cells assessed as viable cells at 1 uM after 24 hrs by Annexin V-APC/propidium iodide staining-based FACScan flow cytometric analysis (reference value: 85.1%); type: functional; details: read-out: Activity
HeLa [11] = assay: Induction of apoptosis in human HeLa cells assessed as viable cells at 2 uM after 24 hrs by Annexin V-APC/propidium iodide staining-based FACScan flow cytometric analysis (reference value: 85.1%); type: functional; details: read-out: Activity
HeLa [12] = assay: Induction of apoptosis in human HeLa cells assessed as early apoptotic cells at 2 uM after 24 hrs by Annexin V-APC/propidium iodide staining-based FACScan flow cytometric analysis (reference value: 6.46%); type: functional
HeLa [13] = assay: Induction of apoptosis in human HeLa cells assessed as necrotic cells at 2 uM after 24 hrs by Annexin V-APC/propidium iodide staining-based FACScan flow cytometric analysis (reference value: 1.18%); type: functional
HeLa [14] = assay: Induction of apoptosis in human HeLa cells assessed as viable cells at 4 uM after 24 hrs by Annexin V-APC/propidium iodide staining-based FACScan flow cytometric analysis (reference value: 85.1%); type: functional; details: read-out: Activity
HeLa [15] = assay: Induction of apoptosis in human HeLa cells assessed as necrotic cells at 4 uM after 24 hrs by Annexin V-APC/propidium iodide staining-based FACScan flow cytometric analysis (reference value: 1.18%); type: functional
HeLa [16] = assay: Induction of apoptosis in human HeLa cells assessed as necrotic cells at 6 uM after 12 hrs by Annexin V-APC/propidium iodide staining-based FACScan flow cytometric analysis (reference value: 0.725%); type: functional
HeLa [17] = assay: Induction of apoptosis in human HeLa cells assessed as viable cells at 6 uM after 24 hrs by Annexin V-APC/propidium iodide staining-based FACScan flow cytometric analysis (reference value: 93%); type: functional; details: read-out: Activity
HeLa [18] = assay: Induction of apoptosis in human HeLa cells assessed as late apoptotic cells at 6 uM after 24 hrs by Annexin V-APC/propidium iodide staining-based FACScan flow cytometric analysis (reference value: 3.84%); type: functional
HeLa [19] = assay: Induction of apoptosis in human HeLa cells assessed as early apoptotic cells at 6 uM after 36 hrs by Annexin V-APC/propidium iodide staining-based FACScan flow cytometric analysis (reference value: 2.45%); type: functional
HeLa [20] = assay: Induction of mitochondrial membrane potential loss in human HeLa cells assessed as cells with high membrane potential at 4 uM after 12 hrs by JC-1 staining-based flow cytometric analysis (reference value: 85.8%); type: functional
HeLa [21] = assay: Induction of mitochondrial membrane potential loss in human HeLa cells assessed as cells with low membrane potential at 2 uM after 12 hrs by JC-1 staining-based flow cytometric analysis (reference value: 9.31%); type: functional
HeLa [22] = assay: Induction of apoptosis in human HeLa cells assessed as late apoptotic cells by measuring FL3-H+ cells at 4 uM after 12 hrs by propidium iodide staining-based flow cytometric analysis (reference value: 3.66%); type: functional
HeLa [23] = assay: Antitumor activity against human HeLa cells xenografted in nude mouse assessed as reduction in tumor volume administered intraperitomeally once in every 2 days for 15 days; type: functional
HeLa [24] = assay: Antitumor activity against human HeLa cells xenografted in nude mouse assessed as reduction in tumor size at 1 mg/kg, ip administered once in every 2 days for 15 days relative to control; type: functional, organism-based
Mus musculus = assay: Toxicity in nude mouse xenografted with human HeLa cells assessed as loss in body weight at 0.5 to 2 mg/kg, ip administered once in every 2 days for 15 days; type: organism-based; details: in vivo
HeLa [25] = assay: Antitumor activity against human HeLa cells xenografted in nude mouse assessed as increase in mouse survival at 2 mg/kg, ip administered once in every 2 days for 15 days relative to control; type: functional, organism-based
HeLa [26] = assay: Induction of apoptosis in human HeLa cells assessed as late apoptotic cells by measuring FL3-H+ cells at 1.4 uM after 24 hrs by propidium iodide staining-based FACScan flow cytometric analysis (reference value: 2.14%); type: functional
HeLa [27] = assay: Induction of apoptosis in human HeLa cells assessed as late apoptotic cells by measuring FL3-H+ cells at 5.6 uM after 24 hrs by propidium iodide staining-based FACScan flow cytometric analysis (reference value: 2.14%); type: functional
HeLa [28] = assay: Induction of apoptosis in human HeLa cells assessed as late apoptotic cells by measuring FL3-H+ cells at 6 uM after 12 hrs by propidium iodide staining-based FACScan flow cytometric analysis (reference value: 2.13%); type: functional
HeLa [29] = assay: Induction of apoptosis in human HeLa cells assessed as late apoptotic cells by measuring FL3-H+ cells at 6 uM after 24 hrs by propidium iodide staining-based FACScan flow cytometric analysis (reference value: 2.13%); type: functional
HeLa [30] = assay: Reduction in lactate production in human HeLa cells at 2 to 8 uM; type: functional, cell-based

IC50 (MDA-MB-231): 17.7 µM
IC50 (A549): 16.4 µM
inhibition [8]: Active
inhibition [9]: Active
SMILES: CC(C)=CC[C@@H](OC(=O)CCCC[C@@H]1CCSC(c2ccccc2)S1)C1=CC(=O)c2c(O)ccc(O)c2C1=O (some centres undefined)
IC50 (HEK-293T): 88.8 µM
Activity (HeLa [1]): 50.96%
Activity (HeLa [2]): 16.37%
Activity (HeLa [3]): 25.74%
Activity (HeLa [4]): 29.06%
Activity (HeLa [5]): 15.42%
Activity (HeLa [6]): 32.14%
Activity (HeLa [7]): 52.44%
viability at 1 µM (HeLa [10]): 37%
viability at 2 µM (HeLa [11]): 23.6%
Activity (HeLa [12]): 15.5%
Activity (HeLa [13]): 11.9%
viability at 4 µM (HeLa [14]): 18.1%
Activity (HeLa [15]): 16.9%
Activity (HeLa [16]): 2.31%
viability at 6 µM (HeLa [17]): 29.1%
Activity (HeLa [18]): 34.8%
Activity (HeLa [19]): 45.7%
Activity (HeLa [20]): 10.3%
Activity (HeLa [21]): 53%
Activity (HeLa [22]): 4.74%
Activity (HeLa [23]): Dose-dependent effect
Activity (HeLa [24]): Active
Activity (Mus musculus): Non-Toxic
Activity (HeLa [25]): Active
Activity (HeLa [26]): 30.1%
Activity (HeLa [27]): 85.2%
Activity (HeLa [28]): 10%
Activity (HeLa [29]): 43.5%
Activity (HeLa [30]): Active
